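Five concentrations, 48 hours, 96-well plates. TGI: total growth inhibition.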
Assays:
Experiment in all cases: NCI-60 cell line screen, 48 h
[1] = system: SK-MEL-5 melanoma
[2] = system: SF-295 CNS
[3] = system: SF-268 CNS
[4] = system: OVCAR-8 ovarian
[5] = system: CAKI-1 renal
[6] = system: M19-MEL melanoma
[7] = system: SK-OV-3 ovarian
[8] = system: U251 CNS
[9] = system: DMS 273 small cell lung
[10] = system: HT29 colon
[11] = system: UO-31 renal
[12] = system: OVCAR-5 ovarian
[13] = system: KM20L2 colon
[14] = system: HCT-15 colon
[15] = system: SF-539 CNS
[16] = system: EKVX NSCLC
[17] = system: IGROV1 ovarian
[18] = system: 786-0 renal
[19] = system: A498 renal
[20] = system: TK-10 renal
[21] = system: NCI-H522 lung
[22] = system: HCC-2998 colon
[23] = system: MALME-3M melanoma
[24] = system: SK-MEL-2 melanoma
[25] = system: COLO 205 colon
[26] = system: NCI-H460 lung
[27] = system: SR leukemia
[28] = system: SNB-78 CNS
[29] = system: K-562 leukemia
[30] = system: RXF-631 renal
[31] = system: KM12 colon
[32] = system: UACC-257 melanoma
[33] = system: HOP-62 NSCLC
[34] = system: DMS 114 small cell lung
[35] = system: OVCAR-3 ovarian
[36] = system: LXFL 529 NSCLC
[37] = system: XF 498 CNS
[38] = system: RPMI-8226 leukemia
[39] = system: M14 melanoma
[40] = system: HOP-18 NSCLC
[41] = system: HCT-116 colon
[42] = system: A549 NSCLC
[43] = system: HOP-92 NSCLC
[44] = system: SW-620 colon
[45] = system: SNB-75 CNS
[46] = system: DLD-1 colon
[47] = system: MOLT-4 leukemia
[48] = system: UACC-62 melanoma
[49] = system: NCI-H23 lung
[50] = system: OVCAR-4 ovarian
[51] = system: RXF 393 renal
[52] = system: HL-60(TB) leukemia
[53] = system: ACHN renal
[54] = system: SNB-19 CNS
[55] = system: SN12C renal
[56] = system: NCI-H226 lung
[57] = system: CCRF-CEM leukemia
[58] = system: LOX IMVI melanoma
[59] = system: SK-MEL-28 melanoma

ClC/C=C/COC1CCCCO1 (centres undefined)
TGI [1]: > 100 µM
TGI [2]: > 100 µM
TGI [3]: > 100 µM
TGI [4]: > 100 µM
TGI [5]: > 100 µM
TGI [6]: > 100 µM
TGI [7]: > 100 µM
TGI [8]: > 100 µM
TGI [9]: > 100 µM
TGI [10]: > 100 µM
TGI [11]: > 100 µM
TGI [12]: > 100 µM
TGI [13]: > 100 µM
TGI [14]: > 100 µM
TGI [15]: > 100 µM
TGI [16]: > 100 µM
TGI [17]: > 100 µM
TGI [18]: > 100 µM
TGI [19]: > 100 µM
TGI [20]: > 100 µM
TGI [21]: 8.85 µM
TGI [22]: > 100 µM
TGI [23]: > 100 µM
TGI [24]: > 100 µM
TGI [25]: > 100 µM
TGI [26]: > 100 µM
TGI [27]: 54.2 µM
TGI [28]: > 100 µM
TGI [29]: > 100 µM
TGI [30]: > 100 µM
TGI [31]: > 100 µM
TGI [32]: > 100 µM
TGI [33]: > 100 µM
TGI [34]: > 100 µM
TGI [35]: > 100 µM
TGI [36]: > 100 µM
TGI [37]: > 100 µM
TGI [38]: > 100 µM
TGI [39]: > 100 µM
TGI [40]: > 100 µM
TGI [41]: > 100 µM
TGI [42]: > 100 µM
TGI [43]: > 100 µM
TGI [44]: > 100 µM
TGI [45]: > 100 µM
TGI [46]: > 100 µM
TGI [47]: 97 µM
TGI [48]: > 100 µM
TGI [49]: > 100 µM
TGI [50]: > 100 µM
TGI [51]: > 100 µM
TGI [52]: 51.4 µM
TGI [53]: > 100 µM
TGI [54]: > 100 µM
TGI [55]: > 100 µM
TGI [56]: > 100 µM
TGI [57]: > 100 µM

O=C(CC1OC(O)C(Cl)=C1Cl)c1cccnc1 (centres undefined)
TGI [1]: > 100 µM
TGI [2]: > 100 µM
TGI [3]: > 100 µM
TGI [4]: > 100 µM
TGI [5]: > 100 µM
TGI [6]: > 100 µM
TGI [7]: > 100 µM
TGI [8]: > 57.7 µM
TGI [9]: > 100 µM
TGI [10]: > 59.7 µM
TGI [11]: > 100 µM
TGI [12]: > 100 µM
TGI [13]: > 100 µM
TGI [14]: > 56.8 µM
TGI [15]: 1.41 µM
TGI [16]: > 100 µM
TGI [17]: > 100 µM
TGI [18]: > 60.1 µM
TGI [19]: > 100 µM
TGI [20]: > 100 µM
TGI [21]: > 100 µM
TGI [22]: > 100 µM
TGI [23]: > 100 µM
TGI [25]: > 100 µM
TGI [26]: > 100 µM
TGI [27]: > 100 µM
TGI [28]: > 100 µM
TGI [29]: > 100 µM
TGI [30]: > 100 µM
TGI [31]: > 100 µM
TGI [32]: > 100 µM
TGI [33]: > 77.7 µM
TGI [34]: > 56.5 µM
TGI [35]: > 100 µM
TGI [36]: > 100 µM
TGI [37]: > 100 µM
TGI [38]: > 60.8 µM
TGI [39]: > 100 µM
TGI [40]: > 100 µM
TGI [41]: > 54.8 µM
TGI [42]: > 100 µM
TGI [43]: > 100 µM
TGI [44]: > 33.9 µM
TGI [45]: > 100 µM
TGI [58]: > 100 µM
TGI [47]: > 100 µM
TGI [48]: > 100 µM
TGI [49]: > 100 µM
TGI [59]: > 100 µM
TGI [50]: > 100 µM
TGI [51]: > 100 µM
TGI [52]: > 100 µM
TGI [53]: > 31.6 µM
TGI [54]: > 100 µM
TGI [55]: > 100 µM
TGI [56]: > 100 µM
TGI [57]: > 100 µM

Source: PubChem BioAssay (NCI)
